Assay results from PubChem BioAssay AID1259407 (Chemical Carcinogenesis Research Information System (CCRIS), 2018).
Activity calls are given as the source filed them. How the calls were made is not given here.

Test system: CCRIS mutagenicity, Ames/micronucleus/aberration tests
Experiment: CCRIS mutagenicity studies
[1] = Test System: AMES SALMONELLA TYPHIMURIUM, Strain/Indicator: TA98, Metabolic Activation: HAMSTER, LIVER, S-9, AROCLOR 1254 (10%), Method: PREINCUBATION
[2] = Test System: AMES SALMONELLA TYPHIMURIUM, Strain/Indicator: TA98, Metabolic Activation: NONE, Method: PREINCUBATION
[3] = Test System: AMES SALMONELLA TYPHIMURIUM, Strain/Indicator: TA98, Metabolic Activation: RAT, LIVER, S-9, AROCLOR 1254 (10%), Method: PREINCUBATION
[4] = Test System: AMES SALMONELLA TYPHIMURIUM, Strain/Indicator: TA100, Metabolic Activation: HAMSTER, LIVER, S-9, AROCLOR 1254 (10%), Method: PREINCUBATION
[5] = Test System: AMES SALMONELLA TYPHIMURIUM, Strain/Indicator: TA100, Metabolic Activation: NONE, Method: PREINCUBATION
[6] = Test System: AMES SALMONELLA TYPHIMURIUM, Strain/Indicator: TA1535, Metabolic Activation: HAMSTER, LIVER, S-9, AROCLOR 1254 (10%), Method: PREINCUBATION
[7] = Test System: AMES SALMONELLA TYPHIMURIUM, Strain/Indicator: TA1535, Metabolic Activation: NONE, Method: PREINCUBATION
[8] = Test System: AMES SALMONELLA TYPHIMURIUM, Strain/Indicator: TA1535, Metabolic Activation: RAT, LIVER, S-9, AROCLOR 1254 (10%), Method: PREINCUBATION
[9] = Test System: AMES SALMONELLA TYPHIMURIUM, Strain/Indicator: TA98, Metabolic Activation: NONE, Method: STANDARD PLATE
[10] = Test System: AMES SALMONELLA TYPHIMURIUM, Strain/Indicator: TA100, Metabolic Activation: NONE, Method: STANDARD PLATE

## CCC(C)Nc1ccc(NC(C)CC)cc1 (centres undefined)
End Point: IN VITRO CHROMOSOMAL ABERRATIONS, Test System: CHINESE HAMSTER LUNG CELLS (CHL), Metabolic Activation: RAT, LIVER, S-9, KC-400
  mutagenic call: inactive; negative
End Point: IN VITRO CHROMOSOMAL ABERRATIONS, Test System: CHINESE HAMSTER OVARY CELLS (CHO), Metabolic Activation: NONE
  mutagenic call: inactive; negative
End Point: IN VITRO CHROMOSOMAL ABERRATIONS, Test System: CHINESE HAMSTER OVARY CELLS (CHO), Metabolic Activation: RAT, LIVER, S-9, AROCLOR 1254
  mutagenic call: inactive; negative
Test System: AMES SALMONELLA TYPHIMURIUM, Strain/Indicator: TA97, Metabolic Activation: HAMSTER, LIVER, S-9, AROCLOR 1254 (10%), Method: PREINCUBATION
  mutagenic call: inactive; negative
Test System: AMES SALMONELLA TYPHIMURIUM, Strain/Indicator: TA97, Metabolic Activation: HAMSTER, LIVER, S-9, AROCLOR 1254 (30%), Method: PREINCUBATION
  mutagenic call: inactive; negative
Test System: AMES SALMONELLA TYPHIMURIUM, Strain/Indicator: TA97, Metabolic Activation: NONE, Method: PREINCUBATION
  mutagenic call: inactive; negative
Test System: AMES SALMONELLA TYPHIMURIUM, Strain/Indicator: TA97, Metabolic Activation: RAT, LIVER, S-9, AROCLOR 1254 (10%), Method: PREINCUBATION
  mutagenic call: inactive; negative
Test System: AMES SALMONELLA TYPHIMURIUM, Strain/Indicator: TA97, Metabolic Activation: RAT, LIVER, S-9, AROCLOR 1254 (30%), Method: PREINCUBATION
  mutagenic call: inactive; negative
[1]
  mutagenic call: inactive; negative
Test System: AMES SALMONELLA TYPHIMURIUM, Strain/Indicator: TA98, Metabolic Activation: HAMSTER, LIVER, S-9, AROCLOR 1254 (30%), Method: PREINCUBATION
  mutagenic call: inactive; negative
[2]
  mutagenic call: inactive; negative
[3]
  mutagenic call: inactive; negative
Test System: AMES SALMONELLA TYPHIMURIUM, Strain/Indicator: TA98, Metabolic Activation: RAT, LIVER, S-9, AROCLOR 1254 (30%), Method: PREINCUBATION
  mutagenic call: inactive; negative
Test System: AMES SALMONELLA TYPHIMURIUM, Strain/Indicator: TA100, Metabolic Activation: HAMSTER, LIVER, S-9, AROCLOR 1254 (5%), Method: PREINCUBATION
  mutagenic call: inactive; negative
[4]
  mutagenic call: inactive; negative
Test System: AMES SALMONELLA TYPHIMURIUM, Strain/Indicator: TA100, Metabolic Activation: HAMSTER, LIVER, S-9, AROCLOR 1254 (30%), Method: PREINCUBATION
  mutagenic call: inactive; negative
[5]
  mutagenic call: inactive; negative
Test System: AMES SALMONELLA TYPHIMURIUM, Strain/Indicator: TA100, Metabolic Activation: RAT, LIVER, S-9, AROCLOR 1254 (5%), Method: PREINCUBATION
  mutagenic call: inactive; negative
Test System: AMES SALMONELLA TYPHIMURIUM, Strain/Indicator: TA100, Metabolic Activation: RAT, LIVER, S-9, AROCLOR 1254 (30%), Method: PREINCUBATION
  mutagenic call: inactive; negative
Test System: AMES SALMONELLA TYPHIMURIUM, Strain/Indicator: TA100, Metabolic Activation: RAT,LIVER, S-9, AROCLOR 1254 (10%), Method: PREINCUBATION
  mutagenic call: inactive; negative
[6]
  mutagenic call: inactive; negative
Test System: AMES SALMONELLA TYPHIMURIUM, Strain/Indicator: TA1535, Metabolic Activation: HAMSTER, LIVER, S-9, AROCLOR 1254 (30%), Method: PREINCUBATION
  mutagenic call: inactive; negative
[7]
  mutagenic call: inactive; negative
[8]
  mutagenic call: inactive; negative
Test System: AMES SALMONELLA TYPHIMURIUM, Strain/Indicator: TA1535, Metabolic Activation: RAT, LIVER, S-9, AROCLOR 1254 (30%), Method: PREINCUBATION
  mutagenic call: inactive; negative

## Nc1ccc(-c2ccc(N)c(Br)c2)cc1Br
Test System: AMES SALMONELLA TYPHIMURIUM, Strain/Indicator: TA98(1,8-DNP6), Metabolic Activation: NONE, Method: STANDARD PLATE
  mutagenic call: active; positive
Test System: AMES SALMONELLA TYPHIMURIUM, Strain/Indicator: TA98(1,8-DNP6), Metabolic Activation: S-9, Method: STANDARD PLATE
  mutagenic call: active; positive
Test System: AMES SALMONELLA TYPHIMURIUM, Strain/Indicator: TA98/1,8-DNP6, Metabolic Activation: HAMSTER, LIVER, S-9, Method: PREINCUBATION
  mutagenic call: active; positive
Test System: AMES SALMONELLA TYPHIMURIUM, Strain/Indicator: TA98/1,8-DNP6, Metabolic Activation: NONE, Method: PREINCUBATION
  mutagenic call: active; positive
Test System: AMES SALMONELLA TYPHIMURIUM, Strain/Indicator: TA98, Metabolic Activation: HAMSTER, LIVER, S-9, Method: PREINCUBATION
  mutagenic call: active; positive
[2]
  mutagenic call: active; positive
[9]
  mutagenic call: active; positive
Test System: AMES SALMONELLA TYPHIMURIUM, Strain/Indicator: TA98, Metabolic Activation: S-9, Method: STANDARD PLATE
  mutagenic call: active; positive
[10]
  mutagenic call: inactive; negative
Test System: AMES SALMONELLA TYPHIMURIUM, Strain/Indicator: TA100, Metabolic Activation: S-9, Method: STANDARD PLATE
  mutagenic call: active; positive

## CCCCC(CC)COC(=O)c1ccccc1C(=O)O (centres undefined)
Test System: AMES SALMONELLA TYPHIMURIUM, Strain/Indicator: TA97, Metabolic Activation: NONE, Method: STANDARD PLATE
  mutagenic call: inactive; negative
Test System: AMES SALMONELLA TYPHIMURIUM, Strain/Indicator: TA97, Metabolic Activation: RAT, LIVER, S-9, AROCLOR 1254, Method: STANDARD PLATE
  mutagenic call: inactive; negative
Test System: AMES SALMONELLA TYPHIMURIUM, Strain/Indicator: TA97, Metabolic Activation: RAT, LIVER, S-9, DI(2-ETHYLHEXYL)PHTHALATE, Method: STANDARD PLATE
  mutagenic call: inactive; negative
[1]
  mutagenic call: inactive; negative
[2]
  mutagenic call: inactive; negative
[9]
  mutagenic call: inactive; negative
[3]
  mutagenic call: inactive; negative
Test System: AMES SALMONELLA TYPHIMURIUM, Strain/Indicator: TA98, Metabolic Activation: RAT, LIVER, S-9, AROCLOR 1254, Method: STANDARD PLATE
  mutagenic call: inactive; negative
Test System: AMES SALMONELLA TYPHIMURIUM, Strain/Indicator: TA98, Metabolic Activation: RAT, LIVER, S-9, DI(2-ETHYLHEXYL)PHTHALATE, Method: STANDARD PLATE
  mutagenic call: inactive; negative
[4]
  mutagenic call: inactive; negative
[5]
  mutagenic call: inactive; negative
[10]
  mutagenic call: inactive; negative
Test System: AMES SALMONELLA TYPHIMURIUM, Strain/Indicator: TA100, Metabolic Activation: RAT, LIVER, S-9, AROCLOR 1254 (10%), Method: PREINCUBATION
  mutagenic call: inactive; negative
Test System: AMES SALMONELLA TYPHIMURIUM, Strain/Indicator: TA100, Metabolic Activation: RAT, LIVER, S-9, AROCLOR 1254, Method: STANDARD PLATE
  mutagenic call: inactive; negative
Test System: AMES SALMONELLA TYPHIMURIUM, Strain/Indicator: TA100, Metabolic Activation: RAT, LIVER, S-9, DI(2-ETHYLHEXYL)PHTHALATE, Method: STANDARD PLATE
  mutagenic call: inactive; negative
Test System: AMES SALMONELLA TYPHIMURIUM, Strain/Indicator: TA102, Metabolic Activation: NONE, Method: STANDARD PLATE
  mutagenic call: inactive; negative
Test System: AMES SALMONELLA TYPHIMURIUM, Strain/Indicator: TA102, Metabolic Activation: RAT, LIVER, S-9, AROCLOR 1254, Method: STANDARD PLATE
  mutagenic call: inactive; negative
Test System: AMES SALMONELLA TYPHIMURIUM, Strain/Indicator: TA102, Metabolic Activation: RAT, LIVER, S-9, DI(2-ETHYLHEXYL)PHTHALATE, Method: STANDARD PLATE
  mutagenic call: inactive; negative
[6]
  mutagenic call: inactive; negative
[7]
  mutagenic call: inactive; negative
[8]
  mutagenic call: inactive; negative
Test System: AMES SALMONELLA TYPHIMURIUM, Strain/Indicator: TA1537, Metabolic Activation: HAMSTER, LIVER, S-9, AROCLOR 1254 (10%), Method: PREINCUBATION
  mutagenic call: inactive; negative
Test System: AMES SALMONELLA TYPHIMURIUM, Strain/Indicator: TA1537, Metabolic Activation: NONE, Method: PREINCUBATION
  mutagenic call: inactive; negative
Test System: AMES SALMONELLA TYPHIMURIUM, Strain/Indicator: TA1537, Metabolic Activation: RAT, LIVER, S-9, AROCLOR 1254 (10%), Method: PREINCUBATION
  mutagenic call: inactive; negative
